Measured values: ChEMBL document CHEMBL1201862, “PubChem BioAssay data set” (2004)
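Assay format: 96-well plates, 48-hour exposure. Here, GI50 denotes the concentration required for 50% inhibition of growth.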 Calls of active or inactive are those of the source. Cut-off read from the data, not from the text of the source: active = GI50 up to about 1.1 µM and inactive = higher.

How the values were obtained:
Assay in all cases: NCI-60 cell line screen, 48 h
RXF 393 = tested on: RXF 393
NCI-H460 = tested on: NCI-H460
LOX IMVI = tested on: LOX IMVI
M14 = tested on: M14
DMS-273 = tested on: DMS-273
XF498 = tested on: XF498
HOP-92 = tested on: HOP-92
COLO 205 = tested on: COLO 205
HOP-62 = tested on: HOP-62
ACHN = tested on: ACHN
786-0 = tested on: 786-0
HL-60 = tested on: HL-60
OVCAR-8 = tested on: OVCAR-8
LXFL 529 = tested on: LXFL 529
UACC-62 = tested on: UACC-62
DLD-1 = tested on: DLD-1
A549 = tested on: A549
HCT-116 = tested on: HCT-116
TK-10 = tested on: TK-10
SNB-78 = tested on: SNB-78
RXF 631 = tested on: RXF 631
SK-MEL-2 = tested on: SK-MEL-2
HT-29 = tested on: HT-29
RPMI-8226 = tested on: RPMI-8226
SK-MEL-28 = tested on: SK-MEL-28
SF-295 = tested on: SF-295
KM12 = tested on: KM12
U-251 = tested on: U-251
SF-268 = tested on: SF-268
NCI-H522 = tested on: NCI-H522
CCRF-CEM = tested on: CCRF-CEM
MOLT-4 = tested on: MOLT-4
SF-539 = tested on: SF-539
K562 = tested on: K562
HCC 2998 = tested on: HCC 2998
M19-MEL = tested on: M19-MEL
DMS-114 = tested on: DMS-114
KM-20L2 = tested on: KM-20L2
EKVX = tested on: EKVX
A498 = tested on: A498
NCI-H23 = tested on: NCI-H23
SW-620 = tested on: SW-620
UO-31 = tested on: UO-31
OVCAR-5 = tested on: OVCAR-5
SK-OV-3 = tested on: SK-OV-3
SK-MEL-5 = tested on: SK-MEL-5
UACC-257 = tested on: UACC-257
SNB-75 = tested on: SNB-75
NCI-H226 = tested on: NCI-H226
OVCAR-3 = tested on: OVCAR-3
IGROV-1 = tested on: IGROV-1
Malme-3M = tested on: Malme-3M
CAKI-1 = tested on: CAKI-1
SN12C = tested on: SN12C
OVCAR-4 = tested on: OVCAR-4
HOP-18 = tested on: HOP-18
HCT-15 = tested on: HCT-15
SNB-19 = tested on: SNB-19
SR = tested on: SR

Measured: GI50

C/C(CC(=O)Nc1ccc(C)cc1C)=N/N=C(N)N
inactive: RXF 393 > 100 µM | NCI-H460 > 100 µM | LOX IMVI > 100 µM | M14 > 100 µM | DMS-273 > 100 µM | XF498 > 100 µM | HOP-92 > 100 µM | COLO 205 > 100 µM | HOP-62 > 100 µM | ACHN > 100 µM | 786-0 > 100 µM | HL-60 > 100 µM | OVCAR-8 > 100 µM | LXFL 529 > 100 µM | UACC-62 > 100 µM | DLD-1 > 100 µM | A549 > 100 µM | HCT-116 > 100 µM | TK-10 > 100 µM | SNB-78 > 100 µM | RXF 631 > 100 µM | SK-MEL-2 > 100 µM | HT-29 > 100 µM | RPMI-8226 > 100 µM | SK-MEL-28 > 100 µM | SF-295 > 100 µM | KM12 > 100 µM | U-251 > 100 µM | SF-268 > 100 µM | NCI-H522 > 100 µM | CCRF-CEM > 100 µM | MOLT-4 > 100 µM | SF-539 > 100 µM | K562 > 100 µM | HCC 2998 > 100 µM | M19-MEL > 100 µM | DMS-114 > 100 µM | KM-20L2 > 100 µM | EKVX > 100 µM | A498 > 100 µM | NCI-H23 > 100 µM | SW-620 > 100 µM | UO-31 > 100 µM | OVCAR-5 > 100 µM | SK-OV-3 > 100 µM | SK-MEL-5 > 100 µM | UACC-257 > 100 µM | SNB-75 > 100 µM | NCI-H226 > 100 µM | OVCAR-3 > 100 µM | IGROV-1 > 100 µM | Malme-3M > 100 µM

C=CC/N=C1\NC(=O)C(CC(=O)Nc2ccc(C)cc2)S1 (stereo not given)
inactive: RXF 393 > 100 µM | CAKI-1 > 100 µM | NCI-H460 > 100 µM | LOX IMVI > 100 µM | M14 > 100 µM | DMS-273 > 100 µM | XF498 > 100 µM | SN12C > 100 µM | OVCAR-4 > 100 µM | COLO 205 > 100 µM | HOP-62 > 100 µM | ACHN > 100 µM | 786-0 > 100 µM | HL-60 > 100 µM | OVCAR-8 > 100 µM | LXFL 529 > 100 µM | UACC-62 > 100 µM | DLD-1 > 100 µM | A549 > 100 µM | TK-10 > 100 µM | HOP-18 > 100 µM | RXF 631 > 100 µM | SK-MEL-2 > 100 µM | HT-29 > 100 µM | RPMI-8226 > 100 µM | SK-MEL-28 > 100 µM | SF-295 > 100 µM | KM12 > 100 µM | U-251 > 100 µM | SF-268 > 100 µM | NCI-H522 > 100 µM | CCRF-CEM > 100 µM | MOLT-4 > 100 µM | SF-539 > 100 µM | K562 > 100 µM | HCC 2998 > 100 µM | M19-MEL > 100 µM | DMS-114 > 100 µM | KM-20L2 > 100 µM | EKVX > 100 µM | SNB-19 > 100 µM | A498 > 100 µM | NCI-H23 > 100 µM | SW-620 > 100 µM | UO-31 > 100 µM | OVCAR-5 > 100 µM | SK-OV-3 > 100 µM | SK-MEL-5 > 100 µM | SNB-75 > 100 µM | NCI-H226 > 100 µM | OVCAR-3 > 100 µM | IGROV-1 > 100 µM | Malme-3M > 100 µM
> 100 µM: HCT-15

COc1nc2c(c(O)c(C)c(=O)n2OC2OC(COC(C)=O)C(OC(C)=O)C(OC(C)=O)C2OC(C)=O)c(=O)n1C (stereo not given)
inactive: RXF 393 > 100 µM | NCI-H460 > 100 µM | LOX IMVI > 100 µM | M14 > 100 µM | DMS-273 > 100 µM | XF498 > 100 µM | SN12C > 100 µM | OVCAR-4 > 100 µM | COLO 205 > 100 µM | HOP-62 > 100 µM | ACHN > 100 µM | 786-0 > 100 µM | OVCAR-8 > 100 µM | LXFL 529 > 100 µM | UACC-62 > 100 µM | DLD-1 > 100 µM | A549 > 100 µM | HCT-116 > 100 µM | TK-10 > 100 µM | SNB-78 > 100 µM | RXF 631 > 100 µM | SK-MEL-2 > 100 µM | HT-29 > 100 µM | SK-MEL-28 > 100 µM | SF-295 > 100 µM | KM12 > 100 µM | U-251 > 100 µM | SF-268 > 100 µM | SR > 100 µM | NCI-H522 44.8 µM | CCRF-CEM > 100 µM | MOLT-4 > 100 µM | SF-539 > 100 µM | K562 > 100 µM | HCC 2998 > 100 µM | M19-MEL > 100 µM | DMS-114 > 100 µM | KM-20L2 > 100 µM | EKVX > 100 µM | SNB-19 > 100 µM | NCI-H23 > 100 µM | SW-620 > 100 µM | UO-31 > 100 µM | OVCAR-5 > 100 µM | SK-MEL-5 > 100 µM | SNB-75 > 100 µM | NCI-H226 > 100 µM | IGROV-1 > 100 µM
> 100 µM: HCT-15
